Columns and labels:
[1] = organism: Homo sapiens; assay: Stimulatory activity against aggregation of human platelet induced by epinephrine 1; format: functional
[2] = organism: Homo sapiens; assay: Inhibitory activity against aggregation of human platelet induced by adenosine diphosphate; format: functional
[3] = organism: Cavia porcellus; assay: Selectivity against histamine in smooth muscle of guinea pig trachea stimulated with histamine; format: functional; conditions: Muscle tissue
[4] = organism: Homo sapiens; assay: Stimulatory activity against aggregation of human platelet induced by epinephrine 2; format: functional
[5] = organism: Homo sapiens; assay: Stimulatory activity against aggregation of human platelet induced by arachidonic acid; format: functional
[6] = organism: Homo sapiens; assay: Inhibitory activity against aggregation of human platelet induced by epinephrine 2; format: functional
[7] = organism: Cavia porcellus; assay: Selectivity against 9,11-AZO-PGH2 induced contractions of smooth muscle guinea pig trachea; format: functional
[8] = organism: Rattus norvegicus; assay: Direct effect on rat stomach strip (RSS) preparation; format: functional
[9] = biological target: T1, Thromboxane-A synthase (Homo sapiens, UniProt P24557); assay: Inhibition of human platelet Thromboxane synthetase; conditions: read-out: I50
T1 sequence (P24557 whole entry): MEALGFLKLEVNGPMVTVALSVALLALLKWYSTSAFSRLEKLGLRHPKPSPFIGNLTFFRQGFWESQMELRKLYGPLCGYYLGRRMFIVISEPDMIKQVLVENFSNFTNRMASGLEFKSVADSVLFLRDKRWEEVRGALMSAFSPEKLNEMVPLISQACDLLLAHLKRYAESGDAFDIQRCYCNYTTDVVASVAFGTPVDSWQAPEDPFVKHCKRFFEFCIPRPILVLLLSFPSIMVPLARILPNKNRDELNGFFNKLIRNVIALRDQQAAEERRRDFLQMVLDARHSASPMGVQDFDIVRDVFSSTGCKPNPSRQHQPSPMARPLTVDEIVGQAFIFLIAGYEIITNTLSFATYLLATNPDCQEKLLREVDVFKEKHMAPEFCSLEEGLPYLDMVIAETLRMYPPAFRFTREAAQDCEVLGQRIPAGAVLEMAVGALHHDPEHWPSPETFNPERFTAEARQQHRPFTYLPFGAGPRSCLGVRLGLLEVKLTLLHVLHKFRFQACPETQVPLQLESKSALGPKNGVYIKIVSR

[10] = organism: Homo sapiens; assay: Inhibitory activity against aggregation of human platelet induced by epinephrine 1; format: functional
[11] = organism: Homo sapiens; assay: Stimulatory activity against aggregation of human platelet induced by adenosine diphosphate; format: functional
[12] = organism: Homo sapiens; assay: Inhibitory activity against aggregation of human platelet induced by arachidonic acid; format: functional; conditions: read-out: I50
[13] = biological target: T2, Thromboxane-A synthase (Homo sapiens) (UniProt P24557); conditions: 1000 uM
T2 sequence (whole entry): T1 sequence (P24557 whole entry)
Description: Inhibitory activity against human platelet Thromboxane synthetase at a dose of 1000 uM

[14] = organism: Homo sapiens; assay: stimulatory activity against aggregation of human platelet induced by epinephrine 2; format: functional
[15] = organism: Homo sapiens; assay: stimulatory activity against aggregation of human platelet induced by arachidonic acid; format: functional
[16] = organism: Homo sapiens; assay: stimulatory activity against aggregation of human platelet induced by adenosine diphosphate; format: functional
[17] = organism: Homo sapiens; assay: stimulatory activity against aggregation of human platelet induced by epinephrine 1; format: functional
[18] = biological target: T1, Thromboxane-A synthase; assay: Inhibitory activity against human platelet Thromboxane synthetase; conditions: read-out: I 50

SMILES | IC50 ([2]; Homo sapiens, read-out: I50) [µM] | IC50 ([3]; read-out: I50) [µM] | IC50 ([6]; Homo sapiens, read-out: I50) [µM] | IC50 ([7]; read-out: I50) [µM] | A50 [8] [µM] | IC50 [9] [µM] | IC50 ([10]; Homo sapiens, read-out: I50) [µM] | IC50 ([12]; Homo sapiens) [µM] | IC50 [12] [µM] | IC50 ([6]; read-out: I50) [µM] | also measured
CCCCC[C@H](O)/C=C/[C@H]1C2CCC(O2)[C@H]1C/C=C\CCCC(=O)O (stereo partly specified) | > 1000 | > 10 | 0.6 | 2.1 | 0.22 | > 1000 | > 1000 | 9.2 | – | – | A50 [1]: 20 µM; A50 [4]: 20 µM; A50 [5]: 20 µM; A50 [11]: 20 µM
CCCCC[C@H](O)/C=C/[C@@H]1C2CCC(O2)[C@H]1C/C=C\CCCC(=O)O (stereo partly specified) | 1.6 | 2.4 | 4.2 | 0.34 | 2.9 | 1000 | 2.2 | 0.3 | – | – | A50 [1]: 30 µM; A50 [4]: 30 µM; A50 [5]: 30 µM; A50 [11]: 30 µM
CCCCC[C@H](O)/C=C/[C@H]1C2CCC(O2)[C@@H]1C/C=C\CCCC(=O)O (stereo partly specified) | > 1000 | > 10 | 56 | 2.2 | 0.0009 | > 1000 | > 1000 | 23 | – | – | A50 [1]: 0.26 µM; A50 [4]: 0.26 µM; inhibition [13]: 71%; A50 [5]: 0.26 µM; A50 [11]: 0.26 µM
CCCCC[C@@H](O)/C=C/[C@H]1C2CCC(O2)[C@H]1C/C=C\CCCC(=O)O (stereo in doubt; 2b) | > 1000 | > 10 | 130 | > 10 | >10 | > 1000 | > 1000 | – | 360 | – | –
CCCCC[C@H](O)/C=C/[C@@H]1C2CCC(O2)[C@@H]1C/C=C\CCCC(=O)O (stereo in doubt; 2c) | – | – | 6 | – | – | > 1000 | > 1000 | – | 310 | – | IC50 ([2]; read-out: I50): > 1000 µM
CCCCC[C@@H](O)/C=C/[C@@H]1C2CCC(O2)[C@@H]1C/C=C\CCCC(=O)O (stereo in doubt; 2d) | > 1000 | – | – | – | – | 560 | – | 140 | – | – | –
CCCCC[C@@H](O)/C=C/[C@@H]1C2CCC(O2)[C@@H]1C/C=C\CCCC(=O)O (stereo in doubt; 3a) | – | > 10 | – | > 10 | 0.0015 | 1000 | – | – | – | – | A50 [14]: 2 µM; A50 [15]: 2 µM; A50 [16]: 2 µM; A50 [17]: 2 µM
CCCCC[C@H](O)/C=C/[C@@H]1C2CCC(O2)[C@@H]1C/C=C\CCCC(=O)O (stereo in doubt; 3b) | – | > 10 | – | 0.12 | 0.4 | 1000 | – | – | 0.6 | 7.5 | IC50 ([2]; read-out: I50): 310 µM; IC50 ([10]; read-out: I50): 670 µM
CCCCC[C@@H](O)/C=C/[C@H]1C2CCC(O2)[C@H]1C/C=C\CCCC(=O)O (stereo in doubt; 3d) | – | – | – | – | – | – | – | – | 93 | 170 | –
CCCCC[C@@H](O)/C=C/[C@@H]1C2CCC(O2)[C@H]1C/C=C\CCCC(=O)O (stereo in doubt; 4a) | – | – | – | – | 0.51 | – | – | – | 4.2 | – | IC50 ([2]; read-out: I 50): 150 µM; IC50 ([3]; read-out: I 50): > 10 µM; IC50 ([6]; read-out: I 50): 10 µM; IC50 ([7]; read-out: I 50): 65 µM; IC50 [18]: 770 µM; IC50 ([10]; read-out: I 50): > 1000 µM
CCCCC[C@@H](O)/C=C/[C@H]1C2CCC(O2)[C@@H]1C/C=C\CCCC(=O)O (stereo in doubt; 4d) | > 1000 | – | – | – | – | 470 | 670 | – | 1000 | 140 | –
CCCCC[C@@H](O)/C=C/[C@H]1C2CCC(O2)[C@@H]1C/C=C\CCCC(=O)O (stereo in doubt; 5b) | – | > 10 | – | 4.9 | 0.88 | > 1000 | – | – | 9.5 | 0.7 | IC50 ([10]; read-out: I50): > 1000 µM
CCCCC[C@@H](O)/C=C/[C@@H]1C2CCC(O2)[C@H]1C/C=C\CCCC(=O)O (stereo in doubt; 5d) | > 1000 | – | 52 | – | – | > 1000 | > 1000 | – | 95 | – | –
